The subject of one series is Rattus norvegicus. The note with it: for NOAEL: histopathology: nonneoplastic.
The next series concerns Poecilus cupreus. Particulars: not reported; morphology.
In a further series the test system is Daphnia magna. Particulars: chronic/long-term; duration: 17 days; reproduction.
Another series deals with Colinus virginianus. The note with it: for LC50: diet.
The test system of another series is Apis mellifera. The note with it: acute; duration: 48 hours; oral; unspecified; mortality.
In a further series the test system is Cyprinus carpio. The note with it: chronic/long-term; duration: 21 days; growth.
For a further series, the system named is Oncorhynchus mykiss. Particulars: acute; duration: 96 hours; mortality.
Another series has as its system Anas platyrhynchos. Particulars: acute; oral; unspecified; mortality.

The results in this text go back to EPA's ToxValDB 9.5 (doi:10.2903/j.efsa.2010.1857).

Values after ≈ are worked out from the molar mass of the structure shown.

As for `CC1=C(C(=O)Nc2ccccc2)SCCO1` [Carboxin], the LD50 in the series on Rattus norvegicus (acute, oral, mortality) is 2590 mg/kg-day; in the series with Colinus virginianus (acute, oral, mortality), greater than 2150 mg/kg-day; in the series with Apis mellifera, greater than 100 µg/piece. Besides, the no observed adverse effect level (NOAEL) was determined as 0.82 mg/kg-day in the series with Rattus norvegicus (chronic, duration: 2 years, M) and 5.5 mg/kg-day in the series with Rattus norvegicus (subchronic, duration: 90 days, oral). This compound also displayed an NOEL in the series on Rattus norvegicus (reproduction developmental, reproduction) of 20 mg/kg-day. The LEL in the series with Poecilus cupreus was 776 mg/kg. Besides, the NOEC in the series with Daphnia magna stood at 0.32 mg/L; with Tagia sp. (chronic/long-term, duration: 56 days) it was 100 mg/kg; in the series on Colinus virginianus (reproduction developmental), 83 mg/kg-day; in the series on Cyprinus carpio it was 0.32 mg/L. Further, the LC50 is greater than 500 mg/kg in the series on Tagia sp. (acute, duration: 14 days, mortality); greater than 985 mg/kg-day with Colinus virginianus (acute, oral, mortality); 2.3 mg/L (≈ 9.77 µM) in the series on Oncorhynchus mykiss.
In turn, `CC1=C(C(=O)Nc2ccccc2)S(=O)(=O)CCO1` [Oxycarboxin] came in with an LC50 in the series with Colinus virginianus (acute, oral, mortality) greater than 2200 mg/kg-day. Also, the LD50 with Anas platyrhynchos worked out at 1250 mg/kg-day.

As usually defined, the NOAEL is the highest dose or exposure tested at which no adverse effect was seen.
